Assay results published in patent US7598244B2, “[1,2,4]triazolo[1,5,a]pyrimidin-2-ylurea derivative and use thereof” (Nippon Kayaku Kabushiki Kaisha, priority 2003, dated 2009).

What was measured:
[1] = system: MHC class I molecules of T1 cells (human lymphoma cell line 174×CEM.); test: Effect on expression of MHC class I from T1 cells (flow cytometry, MFI); format: cell-based; details: 3 days culture
In short: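 EC20 is the compound level that lowers MHC class I MFI by 20% relative to compound-free cultures. Read-out was flow cytometry after FITC W6/32 staining.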

[2] = system: MHC class I molecules of human peripheral blood-derived dendritic cells; test: Effect on expression of MHC class I molecules from human peripheral blood-derived dendritic cells; format: cell-based; details: dendritic cells matured with TNF-α, 3 days; read-out: EC50 (reduction of 50% of the number of cells wherein MHC class I molecules were highly expressed)
Text: Effect on Expression of MHC Class I Molecules from Human Peripheral Blood-Derived Dendritic Cells
Monocytes were isolated from human peripheral blood by the specific gravity centrifugation method. Thereafter, using mouse anti-human CD14 antibody-binding microbeads and a magnetic cell separation system (Miltenyi Biotec), CD14 positive cells were separated from the peripheral blood monocytes. The separated CD14 positive cells were suspended in an RPMI 1640 medium containing 10% FBS, and the suspension was then inoculated in a 6-well plate, resulting in a concentration of 1.0×10^6 cells/well. It was cultured at 37° C. for 20 minutes in an incubator containing 5% carbon dioxide. […] Thereafter, RPMI 1640 containing a 500 U/ml human recombinant […] (hereinafter referred to as GM-CSF; Anapure Bioscientific), 50 ng/ml human recombinant interleukin 4 (hereinafter referred to as IL-4; Pepro Tech), and 10% FBS, was added to the remaining suspension at a concentration of 2 ml/well. The obtained mixture was then cultured at 37° C. in an incubator containing 5% carbon dioxide. When adhesive CD14 positive cells are cultured in the presence of GM-CSF and IL-4, the CD14 positive cells were differentiated into non-adhesive immature dendritic cells. After the cells had been cultured for 7 days, non-adhesive cells were recovered to obtain immature dendritic cells. Using a 6-well plate, the immature dendritic cells (2.5×10^5 cells/well) were cultured in RPMI 1640 containing a 100 U/ml human recombinant tumor necrosis factor-α (hereinafter referred to as TNF-a; Pepro Tech), a test compound, and 10% FBS, at 37° C. for 3 days in an incubator containing 5% carbon dioxide. The dendritic cells became mature as a result of the presence of TNF-α, but in the present test, a test compound was allowed to simultaneously act on the cells. The mature dendritic cells were then stained with fluoroisothiocyanate-labeled mouse anti-human MHC class I monoclonal antibody (an antibody generated from the cell line W6/32 (ATCC No. CRL 1991)). The rate of the number of cells wherein MHC class I molecules were highly expressed to the total number of cells was measured by flow cytometry. The reduction rate of the number of cells wherein MHC class I molecules were highly expressed was calculated using the following formula (2), and the concentrations of test compounds necessary for reduction of 50% (EC50 values) were obtained.
[formula] • Eexp: (The number of cells, wherein MHC class I molecules are highly expressed, in cultured cells containing test compound)/(the total number of cells) • Cexp: (The number of cells, wherein MHC class I molecules are highly expressed, in cultured cells containing no test compounds)/(the total number of cells)

[3] = system: human dendritic cells cultured with human allogenic T cells; test: Effect on the ability of human dendritic cells to induce the growth of allogenic T cells ([3H]-thymidine incorporation); format: cell-based; details: Homo sapiens; dendritic cells treated 3 days with test compound and TNF-α, then 5 days with allogenic T cells; read-out: IC50 (inhibition of DNA synthesis of lymphocytes)
Protocol: Effect on the Ability of Human Dendritic Cells to Induce the Growth of Allogenic T Cells
Immature dendritic cells were cultured with a test compound and TNF-α for 3 days by the same method as that described in Test Example 2. The obtained dendritic cells (2.5×10^3 cells/50 μl/well) were cultured together with human allogenic T cells (2.0×10^5 cells/150 μl/well) in a 96-well flat bottom plate at 37° C. for 5 days in an incubator containing 5% carbon dioxide. Thereafter, [^3H]-thymidine (Amersham Pharmacia Biotech) was added thereto at an amount of 1 μCi/10 μl/well, 16 hours before completion of the culture. After completion of the culture, cells were captured on a glass filter using a cell harvester (Skatron Instrument) and then dried. Thereafter, Scintillator ACS-II (Amersham Pharmacia Biotech) was added thereto, and the radioactivity of [^3H]-thymidine incorporated into the cells were then measured using a liquid scintillation counter. The inhibition rate of the DNA synthesis of lymphocytes was calculated using the following formula (3). Thereafter, the concentration of a test compound necessary for inhibition of 50% (IC50 value) was obtained.
[formula] • Eexp: The amount of [^3H]-thymidine incorporated into cultured cells containing test compound • Cexp: The amount of [^3H]-thymidine incorporated into cultured cells containing no test compounds

BDF1 mice = test: Effect on graft versus host (GVH) reaction, spleen weight measurement method; format: in vivo, mouse; details: subcutaneous, twice a day for 7 days
Protocol: Effect on Graft Versus Host (GVH) Reaction
The effect of the compound on the GVH reaction was determined in accordance with the spleen weight measurement method of Simonsen et al. (Simonsen et al., Annals of the New York Academy of Sciences, p. 73 (1978)). Splenic cells were prepared from C57BL/6 mice (Charles River Japan, Inc.; female; 10-week-old), and the cells (5.0×10^6 cells) were transferred into the abdominal cavity of each of BDF1 mice (Charles River Japan; […]). From the day of transferring of the above cells, the test compound having each diluted concentration or a 5% glucose solution used as a solvent was subcutaneously administered to the BDF1 mice twice a day for 7 consecutive days. Eight days after the transferring of the above cells, the spleen weight of each of the BDF1 mice was measured. The reduction rate of the spleen weight was calculated using the following formula (6). The amount of the test compound necessary for reduction of 50% (ED50 value) was obtained.
[formula] • Eexp: Spleen weight of mouse to which test compound was administered • Cexp: Spleen weight of mouse to which solvent was administered

## COc1ccc(-c2ccnc3nc(NC(=O)NCc4cccnc4)nn23)cc1 [Example 039]
[1]
  EC20 (concentration necessary for suppressing 20% of the expression level of MHC class I molecules): 300 nM
[2]
  EC50: 540 nM
[3]
  IC50: 1520 nM
BDF1 mice; 25 × 2 mg/kg/single administration
  Inhibition rate (%) (reduction rate of the spleen weight): 14.1%
BDF1 mice; 50 × 2 mg/kg/single administration
  Inhibition rate (%) (reduction rate of the spleen weight): 29.5%
